{"source": "patent US7223862B2", "about": "“Pyridone compounds useful for producing pyridine compounds” (Sumitomo Chemical Company, Limited, priority 2001, dated 2007)", "key": {"ivyleaf morning glory [1]": {"tested_on": "ivyleaf morning glory", "assay": "Reference test example 1: foliar treatment, herbicidal activity", "type": "in vivo", "conditions": "foliage spray of emulsifiable concentrate, 125 g/ha, examined 12 days after spraying, greenhouse", "protocol": "(§1) Cylindrical plastic pots, each of which has a diameter of 10 cm and a depth of 10 cm, were filled with soil, and then seeded with ivyleaf morning glory and velvetleaf. The test plants were grown in a greenhouse for 10 days. Then, each of the compounds 1, 2, 3, 6, 8, 12, 15, 16, 19, 21, 40, 59 and 76 was formulated into an emulsifiable concentrate according to Reference formulation example 2, and diluted with water containing a spreading agent. The dilution was uniformly sprayed over the foliage of the test plants with a sprayer at a rate of 1000 liters per hectare. After spraying, the test plants were grown in the greenhouse for 12 days, and the herbicidal activity was examined."}, "velvetleaf [2]": {"tested_on": "velvetleaf", "assay": "Reference test example 1: foliar treatment, herbicidal activity", "type": "in vivo", "conditions": "foliage spray of emulsifiable concentrate, 125 g/ha, examined 12 days after spraying, greenhouse", "protocol": "as §1"}, "ivyleaf morning glory [3]": {"tested_on": "ivyleaf morning glory", "assay": "Reference test example 2: soil surface treatment, herbicidal activity", "type": "in vivo", "conditions": "soil surface spray of emulsifiable concentrate, 500 g/ha, examined 19 days after spraying, greenhouse", "description": "as §1, with “velvetleaf. Each” for “velvetleaf. The test plants were grown in a greenhouse for 10 days. Then, each”, “with water.” for “with water containing a spreading agent.”, “the soil surface” for “the foliage of the test plants”, “for 19” for “for 12”"}, "velvetleaf [4]": {"tested_on": "velvetleaf", "assay": "Reference test example 2: soil surface treatment, herbicidal activity", "type": "in vivo", "conditions": "soil surface spray of emulsifiable concentrate, 500 g/ha, examined 19 days after spraying, greenhouse", "description": "as §1, with “velvetleaf. Each” for “velvetleaf. The test plants were grown in a greenhouse for 10 days. Then, each”, “with water.” for “with water containing a spreading agent.”, “the soil surface” for “the foliage of the test plants”, “for 19” for “for 12”"}}}
{"smiles": "CCOC(=O)COc1ncccc1Oc1cc(-n2c(=O)cc(C(F)(F)F)n(C)c2=O)c(F)cc1Cl", "note": "[Compound 3, 3-[2-chloro-4-fluoro-5-(3-methyl-2,6-dioxo-4-trifluoromethyl-1,2,3,6-tetrahydropyrimidin-1-yl)phenoxy]-2-(ethoxycarbonylmethoxy)pyridine]", "values": [{"measurement": "herbicidal activity (control of growth)", "setting": "ivyleaf morning glory [1]", "value": "perfectly controlled the growth"}, {"measurement": "herbicidal activity (control of growth)", "setting": "velvetleaf [2]", "value": "perfectly controlled the growth"}, {"measurement": "herbicidal activity (control of growth)", "setting": "ivyleaf morning glory [3]", "value": "perfectly controlled the growth"}, {"measurement": "herbicidal activity (control of growth)", "setting": "velvetleaf [4]", "value": "perfectly controlled the growth"}]}
{"smiles": "COC(=O)COc1ncccc1Oc1cc(-n2c(=O)cc(C(F)(F)F)n(C)c2=O)c(F)cc1Br", "note": "[Compound 21]", "values": [{"measurement": "herbicidal activity (control of growth)", "setting": "ivyleaf morning glory [1]", "value": "perfectly controlled the growth"}, {"measurement": "herbicidal activity (control of growth)", "setting": "velvetleaf [2]", "value": "perfectly controlled the growth"}, {"measurement": "herbicidal activity (control of growth)", "setting": "ivyleaf morning glory [3]", "value": "perfectly controlled the growth"}, {"measurement": "herbicidal activity (control of growth)", "setting": "velvetleaf [4]", "value": "perfectly controlled the growth"}]}
{"smiles": "Cn1c(C(F)(F)F)cc(=O)n(-c2cc(Oc3ccc[nH]c3=O)c(Cl)cc2F)c1=O", "note": "[Compound 76, 3-[2-chloro-4-fluoro-5-(3-methyl-2,6-dioxo-4-trifluoromethyl-1,2,3,6-tetrahydropyrimidin-1-yl)phenoxy]-1H-pyridin-2-one]", "values": [{"measurement": "melting point", "value": 180.8, "unit": "°C"}, {"measurement": "herbicidal activity (control of growth)", "setting": "ivyleaf morning glory [1]", "value": "perfectly controlled the growth"}, {"measurement": "herbicidal activity (control of growth)", "setting": "velvetleaf [2]", "value": "perfectly controlled the growth"}, {"measurement": "herbicidal activity (control of growth)", "setting": "ivyleaf morning glory [3]", "value": "perfectly controlled the growth"}, {"measurement": "herbicidal activity (control of growth)", "setting": "velvetleaf [4]", "value": "perfectly controlled the growth"}]}
{"smiles": "COC(=O)COc1ncccc1Oc1cc(-n2c(=O)cc(C(F)(F)F)n(C)c2=O)c(F)cc1[N+](=O)[O-]", "note": "[Compound 59]", "values": [{"measurement": "herbicidal activity (control of growth)", "setting": "ivyleaf morning glory [1]", "value": "perfectly controlled the growth"}, {"measurement": "herbicidal activity (control of growth)", "setting": "velvetleaf [2]", "value": "perfectly controlled the growth"}, {"measurement": "herbicidal activity (control of growth)", "setting": "ivyleaf morning glory [3]", "value": "perfectly controlled the growth"}, {"measurement": "herbicidal activity (control of growth)", "setting": "velvetleaf [4]", "value": "perfectly controlled the growth"}]}
{"smiles": "COC(=O)COc1ncccc1Oc1cc(-n2c(=O)cc(C(F)(F)F)n(C)c2=O)c(F)cc1Cl", "note": "[Compound 2, 3-[2-chloro-4-fluoro-5-(3-methyl-2,6-dioxo-4-trifluoromethyl-1,2,3,6-tetrahydropyrimidin-1-yl)phenoxy]-2-(methoxycarbonylmethoxy)pyridine]", "values": [{"measurement": "herbicidal activity (control of growth)", "setting": "ivyleaf morning glory [1]", "value": "perfectly controlled the growth"}, {"measurement": "herbicidal activity (control of growth)", "setting": "velvetleaf [2]", "value": "perfectly controlled the growth"}, {"measurement": "herbicidal activity (control of growth)", "setting": "ivyleaf morning glory [3]", "value": "perfectly controlled the growth"}, {"measurement": "herbicidal activity (control of growth)", "setting": "velvetleaf [4]", "value": "perfectly controlled the growth"}]}
{"smiles": "COC(=O)COc1ncccc1Oc1cc(-n2c(=O)cc(C(F)(F)F)n(C)c2=O)c(F)cc1C#N", "note": "[Compound 40]", "values": [{"measurement": "herbicidal activity (control of growth)", "setting": "ivyleaf morning glory [1]", "value": "perfectly controlled the growth"}, {"measurement": "herbicidal activity (control of growth)", "setting": "velvetleaf [2]", "value": "perfectly controlled the growth"}, {"measurement": "herbicidal activity (control of growth)", "setting": "ivyleaf morning glory [3]", "value": "perfectly controlled the growth"}, {"measurement": "herbicidal activity (control of growth)", "setting": "velvetleaf [4]", "value": "perfectly controlled the growth"}]}
{"smiles": "Cn1c(C(F)(F)F)cc(=O)n(-c2cc(Oc3cccnc3OCC(=O)O)c(Cl)cc2F)c1=O", "note": "[Compound 1]", "values": [{"measurement": "herbicidal activity (control of growth)", "setting": "ivyleaf morning glory [1]", "value": "perfectly controlled the growth"}, {"measurement": "herbicidal activity (control of growth)", "setting": "velvetleaf [2]", "value": "perfectly controlled the growth"}, {"measurement": "herbicidal activity (control of growth)", "setting": "ivyleaf morning glory [3]", "value": "perfectly controlled the growth"}, {"measurement": "herbicidal activity (control of growth)", "setting": "velvetleaf [4]", "value": "perfectly controlled the growth"}]}
